System: H9-derived spinal cord NSCs
Assay: Long-term maintenance and expansion of spinal cord NSCs in neural maintenance media
Type: cell-based, human
Details: for effect of omission from maintenance media on cultures: omission of the component, data not shown

SMILES: Cc1c[nH]c(-c2cnc(NCCNc3ccc(C#N)cn3)nc2-c2ccc(Cl)cc2Cl)n1 [CHIR]
- effect of omission from maintenance media on cultures: failure to sustain cultures over time

SMILES: CNC1CCC(N(Cc2cccc(-c3ccncc3)c2)C(=O)c2sc3c(F)ccc(F)c3c2Cl)CC1 (stereo not drawn) [Hh-Ag1.5]
- effect on dorso-ventral polarity of induced cells (NKX6.1, PAX6) (18 days after neural induction): disrupted dorso-ventral polarity
- effect of omission from maintenance media on cultures: failure to sustain cultures over time

Reference: patent US11773369B2, “Generation of human spinal cord neural stem cells” (THE REGENTS OF THE UNIVERSITY OF CALIFORNIA, priority 2018, dated 2023)
